The values that follow come from PMC6554712 (Biochemistry, 2018).

In general, Km refers to the concentration of substrate that gives half-maximal velocity. What is called kcat is the maximal rate divided by the concentration of active sites.

In one data set the target is FomD (Streptomyces fradiae, UniProt D2SNF7). Description: […]-NMR hydrolysis assay. Type of data set: biochemical. The conditions noted are these: 100 μM FomD, 6 mM racemic HPP-CMP.
A further data set deals with Fom3 (Streptomyces fradiae, UniProt D2SNF5). Description: Mössbauer spectroscopy of […]-labelled enzyme. The conditions noted are these: 4.2 K, 53 mT; binds to the [4Fe-4S] cluster. Type of data set: binding.
Substrate in data set [1]: Nc1ccn([C@@H]2O[C@H](COP(=O)(O)OP(=O)(O)CCO)[C@@H](O)[C@H]2O)c(=O)n1
The data set can be described thus: steady-state kinetics, HPP-CMP formation by LC-MS/MS. Type of data set: biochemical, Streptomyces fradiae. The conditions noted are these: 1 μM Fom3, SAM, Ti(III)citrate as reductant, anaerobic.

Sequence of FomD (D2SNF7 whole entry): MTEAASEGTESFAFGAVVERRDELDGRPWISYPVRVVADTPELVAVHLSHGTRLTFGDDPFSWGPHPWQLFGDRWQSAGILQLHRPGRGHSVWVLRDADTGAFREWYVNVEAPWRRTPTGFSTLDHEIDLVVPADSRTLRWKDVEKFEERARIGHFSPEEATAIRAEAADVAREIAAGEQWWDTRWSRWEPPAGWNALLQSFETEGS

In the case of `CC(O)CP(=O)(O)OP(=O)(O)OC[C@H]1O[C@@H](n2ccc(N)nc2=O)[C@H](O)[C@@H]1O` (stereo partly shown) [HPP-CMP], on FomD, the 31P-NMR hydrolysis assay result is “FomD from S. fradiae was overproduced and purified and then used in a reaction”.

For `C[S+](CC[C@H](N)C(=O)O)C[C@H]1O[C@@H](n2cnc3c(N)ncnc32)[C@H](O)[C@@H]1O` (stereo partly shown) [SAM], on Fom3, the “Mössbauer spectroscopy of 57Fe-labelled enzyme” value was “Upon incubating as-isolated Fom3 with SAM”.

B1: Fom3 (Streptomyces fradiae) (protein)
chain: MTIGSLGSTEFALHGKPAIRWGDLPQRVGKKASRRYQKVLLLNPSATLFRHDLPRCTYPLGLGYIAAVLEKYDYEVKILDVFAEGYYNAQPVDGDEQFLRYGLSDDDIVKVIKEFAPDVIGISSIFSNQADNVHHLLKLADLVAPEAVTSIGGAHARYFPKACLDDPNLDAVFLGEGEMTFLLWLEHLNGNVREDEVHGIAWRDRDGKIQIKPELPLISSMRPEGPEQGKSSPMLSMAGELDHIPFPAWHHYNMEKYFEIKAYQSPYTVGSRVGQLYTSRGCTAHCTFCTTTHFWGQKLRRRSVDNVVNEVLRLRDEYGIDEFHIQDDNITNDMDHARELFRAFKEVGLPWATPQGTALWRMDEELLDLMAESGAYQVTFAIESGVQRVLKDLIKKPLNLGRTSHLIKYARSLGMHVHGFFIIGMPPMFGNAGESIEEMQASYDYAEESGFSSASFFAASPIVGSELLRECIRQGFVDPEESLYRMTYKQGIINVPGLWDGEEIAELAAKFNRDFNARRDRDYTPQKQWNANQY
Turning to B1, in data set [1], the Michaelis-Menten constant (Km) was 74 µM and the kcat is ~0.013 s⁻¹.
